pIC50: −log10 of the molar value.
molecular target: Reverse transcriptase protein (Human immunodeficiency virus 1, UniProt Q9WJQ1); test: In-vitro HIV-1 RT Screening
Description: The reaction mixture was set with template primer complex, RT enzyme and dNTPs in a lysis buffer with or without inhibitors. The reaction mixture was incubated at 37 °C for 1 h and then transferred to streptavidine-coated microtitre plate (MTP). The biotin-labeled dNTPs that were incorporated in the template due to activity of RT, bound to streptavidine. The unbound dNTPs were washed using wash buffer and anti-DIG-POD was added to the MTP. The DIG-labeled dNTPs incorporated in the template were bound to an anti-DIG-POD antibody. The unbound anti-DIG-POD was washed again with washing buffer and the peroxide substrate (ABST) was added to the MTP. A colored reaction product was produced during the cleavage of the substrate catalyzed by a peroxide enzyme.

SMILES | pIC50
O=C(Nc1ccc(Cl)cc1)OC(CN1CCCc2ccccc21)c1ccc(Cl)cc1 (configuration not stated) [1-(4-chlorophenyl)-2-(3,4-dihydroquinolin-1(2H)-yl)ethyl 4-chlorophenylcarbamate (6h)] | 4.62
O=C(Nc1ccc(F)cc1)OC(CN1CCCc2ccccc21)c1ccc(Cl)cc1 (configuration not stated) [1-(4-chlorophenyl)-2-(3,4-dihydroquinolin-1(2H)-yl)ethyl 4-fluorophenylcarbamate (6g)] | 4.31
O=C(Nc1ccccc1F)OC(CN1CCCc2ccccc21)c1ccc(Cl)cc1 (configuration not stated) [1-(4-chlorophenyl)-2-(3,4-dihydroquinolin-1(2H)-yl)ethyl 2-fluorophenylcarbamate (6e)] | 4.04
O=C(Nc1ccc([N+](=O)[O-])cc1)OC(CN1CCCc2ccccc21)c1ccc(Cl)cc1 (configuration not stated) [1-(4-chlorophenyl)-2-(3,4-dihydroquinolin-1(2H)-yl)ethyl 4-nitrophenylcarbamate (6j)] | 5.27
CCOC(=O)c1ccccc1NC(=O)OC(CN1CCCc2ccccc21)c1ccc(Cl)cc1 (configuration not stated) [Ethyl 2-((1-(4-chlorophenyl)-2-(3,4-dihydroquinolin-1(2H)-yl)ethoxy)carbonylamino) benzoate (6k)] | 4.41
O=C(Nc1ccccc1)OC(CN1CCCc2ccccc21)c1ccc(Cl)cc1 (configuration not stated) [1-(4-chlorophenyl)-2-(3,4-dihydroquinolin-1(2H)-yl)ethyl phenylcarbamate (6a)] | 4.43
CCOC(=O)c1ccc(NC(=O)OC(CN2CCCc3ccccc32)c2ccc(Cl)cc2)cc1 (configuration not stated) [Ethyl4-((1-(4-chlorophenyl)-2-(3,4-dihydroquinolin-1(2H)-yl)ethoxy)carbonylamino) benzoate (6l)] | 4.91

Other lines, results leading:

pIC50 | SMILES
4.14 | O=C(Nc1cccc(F)c1)OC(CN1CCCc2ccccc21)c1ccc(Cl)cc1 (configuration not stated) [1-(4-chlorophenyl)-2-(3,4-dihydroquinolin-1(2H)-yl)ethyl 3-fluorophenylcarbamate (6f)]
5.09 | Cc1ccccc1NC(=O)OC(CN1CCCc2ccccc21)c1ccc(Cl)cc1 (configuration not stated) [1-(4-chlorophenyl)-2-(3,4-dihydroquinolin-1(2H)-yl)ethyl o-tolylcarbamate (6b)]
4.17 | Cc1cccc(NC(=O)OC(CN2CCCc3ccccc32)c2ccc(Cl)cc2)c1 (configuration not stated) [1-(4-chlorophenyl)-2-(3,4-dihydroquinolin-1(2H)-yl)ethyl m-tolylcarbamate (6c)]
4.08 | Cc1ccc(NC(=O)OC(CN2CCCc3ccccc32)c2ccc(Cl)cc2)cc1 (configuration not stated) [1-(4-chlorophenyl)-2-(3,4-dihydroquinolin-1(2H)-yl)ethyl p-tolylcarbamate (6d)]
4.83 | O=C(Nc1cccc([N+](=O)[O-])c1)OC(CN1CCCc2ccccc21)c1ccc(Cl)cc1 (configuration not stated) [1-(4-chlorophenyl)-2-(3,4-dihydroquinolin-1(2H)-yl)ethyl 3-nitrophenylcarbamate (6i)]

Reference: BindingDB's records for doi:10.1016/j.bioorg.2015.12.005 (Birla Institute of Technology, 2016)
